Counter-ions that a name gives are not always drawn.
SMILES | melting point
Cc1cccc(C)c1C(=Nc1ccc(F)cc1)NC(=Nc1ccc(F)cc1)N1CCCCCC1 (as salt: hydrochloride) [Example 49, N-[azepan-1-yl-(4-fluoro-phenylimino)-methyl]-N′-(4-fluoro-phenyl)-2,6-dimethyl-benzamidine] | 155 to 157 °C
COc1ccc(NC(=NC(=Nc2ccccc2)N2CCCCC2C)c2ccccc2C)cc1 (stereo not shown) (as salt: hydrochloride) [Example 60, N-(4-methoxy-phenyl)-2-methyl-N′-[(2-methyl-piperidin-1-yl)-phenylimino-methyl]-benzamidine] | 162 to 164 °C (dec.)
CC1CCCCN1C(=Nc1ccccc1)NC(=Nc1ccccc1)c1ccccc1 (stereo not shown) (as salt: hydroiodid) [Example 3, N-[(2-Methyl-piperidin-1-yl)-phenylimino-methyl]-N′-phenyl-benzamidine] | 219 to 221 °C (dec.)
Cc1ccccc1C(=NC(=Nc1ccccc1)N1CCCC1)Nc1ccccc1 (as salt: hydrochloride) [Example 20, 2-methyl-N-phenyl-N′-(phenylimino-pyrrolidin-1-yl-methyl)-benzamidine] | 191 to 192 °C
CC1CCCCN1C(N=C(Nc1ccc(F)cc1)c1c(F)cccc1F)=Nc1ccc(F)cc1 (stereo not shown) (as salt: nitrate) [Example 51, 2,6-difluoro-N-(4-fluoro-phenyl)-N′-[(4-fluoro-phenylimino)-(2-methyl-piperidin-1-yl)-methyl]-benzamidine] | 171 to 173 °C
Clc1ccc(NC(=NC(=Nc2ccccc2)N2CCCC2)c2ccccc2)cc1 (as salt: hydrochloride) [Example 16, N-(4-chloro-phenyl)-N′-(phenylimino-pyrrolidin-1-yl-methyl)-benzamidine] | 219 to 221 °C
Fc1ccccc1C(=Nc1ccccc1)NC(=Nc1ccccc1)N1CCCC1 (as salt: nitrate) [Example 39, N-[(2-fluoro-phenyl)-phenylimino-methyl]-N′-phenyl-pyrrolidine-1-carboxamidine] | 194 to 196 °C
Cc1ccccc1C(=NC(=Nc1ccccc1)C1(C)CCCCC1)Nc1ccc(F)cc1 [Example 11, N-(4-Fluoro-phenyl)-2-methyl-N′-[(1-methyl-cyclohexyl)-phenylimino-methyl]-benzamidine] | 210 to 211 °C

The next lines start with the values.

melting point | SMILES
151 to 153 °C | Cc1ccccc1C(=CC(=Nc1ccccc1)N1CCCCO1)Nc1ccc(F)cc1 (as salt: nitrate) [Example 91, (3-phenylimino-3-[1,2]oxazinan-2-yl-1-o-tolyl-propenyl)-(4-fluoro-phenyl)-amine]
82 to 84 °C | Fc1ccc(NC(=CC(=NC2CC2)N2CCCCO2)c2ccccc2)cc1 (as salt: nitrate) [Example 110, (3-cyclopropylimino-3-[1,2]oxazinan-2-yl-1-phenyl-propenyl)-(4-fluoro-phenyl)-amine]
206 to 208 °C | Cc1ccccc1N=C(N=C(Nc1ccc(F)cc1)c1c(C)cccc1C)N1CCCCC1C (stereo not shown) (as salt: hydrochloride) [Example 84, N-(4-fluoro-phenyl)-2,6-dimethyl-N′-[(2-methyl-piperidin-1-yl)-o-tolylimino-methyl]-benzamidine]
210 to 213 °C | Cc1cccc(C)c1C(=Nc1ccc(F)cc1)NC(=Nc1cccc(N)c1)N1CCCCC1C (stereo not shown) (as salt: hydrochloride) [Example 70, N-[(3-amino-phenylimino)-(2-methyl-piperidin-1-yl)-methyl]-N′-(4-fluoro-phenyl)-2,6-dimethyl-benzamidine]
140 to 142 °C (dec.) | Cc1ccccc1C(=CC(=NC1CC1)N1CCCCO1)Nc1ccc(F)cc1 (as salt: hydrochloride) [Example 107, (3cyclopropylimino-3-[1,2]oxazinan-2-yl-1-o-tolyl-propenyl)-(4-fluoro-phenyl)-amine]

— US6911477B2, “Muscarinic receptor agonists” (Pfizer Inc., priority 1996, dated 2005)
